# Test results published in patent publication US20020081572A1, “Three dimensional structure of paramyxovirus hemagglutinin neuraminidases and use thereof” (priority 2000, published 2002).
# What was measured:
# [1] = molecular target: Influenza Neuraminidase; assay: Influenza neuraminidase fluorimetric assay; type: biochemical, influenza virus; conditions: 4-methylumbelliferyl-alpha-D-acetylneuraminic acid substrate 75 uM, pH 6.5, 37 C
# [2] = molecular target: Sendai Virus Hemagglutinin-Neuraminidase (Sendai virus, UniProt P03425); assay: Paramyxovirus hemagglutinin-neuraminidase fluorimetric assay; type: biochemical
# Sequence of Sendai Virus Hemagglutinin-Neuraminidase (P03425 whole entry): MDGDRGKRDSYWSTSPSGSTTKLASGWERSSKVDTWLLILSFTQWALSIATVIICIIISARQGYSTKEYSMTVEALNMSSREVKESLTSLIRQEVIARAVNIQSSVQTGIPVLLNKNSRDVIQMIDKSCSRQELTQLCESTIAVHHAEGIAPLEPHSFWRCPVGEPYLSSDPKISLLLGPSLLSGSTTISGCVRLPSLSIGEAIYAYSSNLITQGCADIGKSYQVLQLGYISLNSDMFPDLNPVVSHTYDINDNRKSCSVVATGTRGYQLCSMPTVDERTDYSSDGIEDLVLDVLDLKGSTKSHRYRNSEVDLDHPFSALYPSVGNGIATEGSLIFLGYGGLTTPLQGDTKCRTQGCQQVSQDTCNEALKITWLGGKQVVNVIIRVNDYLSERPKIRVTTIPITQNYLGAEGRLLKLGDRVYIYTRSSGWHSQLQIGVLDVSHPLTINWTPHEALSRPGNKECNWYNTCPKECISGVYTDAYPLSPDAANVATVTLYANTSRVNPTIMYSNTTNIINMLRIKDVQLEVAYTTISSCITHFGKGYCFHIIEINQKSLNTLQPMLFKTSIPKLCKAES
Structure (SMILES),IC50 [1] [µM],IC50 [2] [µM]
"CCN(CC)C(=O)C(NC(C)=O)C1CC(C(=O)O)CC1NC(=N)N (stereo not drawn) [Compound 1, alpha-3-[(Acetylamino)(diethylaminocarbonyl)methyl]-beta-4-[(aminoiminomethyl)amino]cyclopentane-1-carboxylic acid]",< 0.05,> 300
"CCC(CC)C(NC(C)=O)C1C(NC(=N)N)CC(C(=O)O)C1O (single isomer, unassigned; (-)) [Compound 2, (-)-t-e-[(1-Acetylamino)(2-ethyl)butyl]-c-4-(aminoiminomethyl)amino-t-2-hydroxycyclopentan-r-1-carboxylic acid]",< 0.05,> 300
"CCC(CC)C(NC(C)=O)C1CC(C(=O)O)CC1NC(=N)N (single isomer, unassigned; (-)) [Compound 3, (-)t-3-[(1-Acetylamino-2-ethyl)butyl]-c-4-(aminoiminomethyl)aminocyclopentan-r-1-carboxylic acid]",< 0.05,> 300
